In the supplement of paper PMC10627819:

How the values were obtained:
S. pneumoniae D39V [1] = assay: fitness (endpoint OD595 vs no drug) (fraction); higher = more growth
How it was run: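 Volumes were 30 µl per well, or 55 µl for S. pneumoniae, in 384-well plates inoculated at OD595 0.01. Media were TSB, LB Lennox or CY at 37 °C, and OD595 was read every 30 min for 14 h with first-reading background subtraction. Fitness is the ratio of optical density at stationary-phase entry to the robust mean of no-drug controls. That ratio is capped at 1.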

B. subtilis 168 = assay: Bliss interaction score (quartile over a dose matrix) (fitness difference); higher = more antagonism (negative = synergy)
How it was run: (§1)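 The Bliss score is observed fitness minus expected fitness, where the expected value is the product of single-drug fitness values inferred from combination data. Fitness is OD595 at entry into stationary phase normalised to the plate's robust no-drug mean and capped at 1. Scores are reported as quartiles spanning technical, biological and donor/recipient replicates.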

S. aureus DSM 20231 = assay: as above
How it was run: as §1

S. aureus Newman = assay: as above
How it was run: as §1

S. pneumoniae D39V [2] = assay: as above
How it was run: as §1
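Wherever Bliss interaction score (quartile over a dose matrix) is given: first quartile when negative (synergy) and third quartile when positive (antagonism).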

Clc1ccc(COC(Cn2ccnc2)c2ccc(Cl)cc2Cl)c(Cl)c1 (stereo not drawn) [Miconazole] + CN[C@@H]1[C@H](O[C@H]2[C@H](O[C@H]3[C@H](O)[C@@H](O)[C@H](N=C(N)N)[C@@H](O)[C@@H]3N=C(N)N)O[C@@H](C)[C@]2(O)C=O)O[C@@H](CO)[C@H](O)[C@H]1O [Streptomycin]
fitness, S. pneumoniae D39V [1]
Settings	first compound 1.073 µg/mL	first compound 1.25 µg/mL	first compound 2.145 µg/mL	first compound 2.5 µg/mL	first compound 4.29 µg/mL	first compound 5 µg/mL
partner 2 µg/mL	0.978	–	0.977	–	0.936	–
partner 4 µg/mL	0.988	0.909	0.988	0.904	0.946	0.912
partner 8 µg/mL	≥ 1	0.86	≥ 1	0.832	0.932	0.86

fitness, S. pneumoniae D39V [1], one replicate
Settings	first compound 1.25 µg/mL	first compound 2.5 µg/mL	first compound 5 µg/mL
partner 2 µg/mL	0.922	0.964	0.977
partner 16 µg/mL	0.712	0.632	0.679

Settings	Bliss interaction score
B. subtilis 168	0.0605
S. aureus DSM 20231	0.0476
S. aureus Newman	0.0487
S. pneumoniae D39V [2]	0.0827

Clc1ccc(COC(Cn2ccnc2)c2ccc(Cl)cc2Cl)c(Cl)c1 (stereo not drawn) [Miconazole] + CN[C@H](CC(C)C)C(=O)N[C@H]1C(=O)N[C@@H](CC(N)=O)C(=O)N[C@H]2C(=O)N[C@H]3C(=O)N[C@H](C(=O)N[C@H](C(=O)O)c4cc(O)cc(O)c4-c4cc3ccc4O)[C@H](O)c3ccc(c(Cl)c3)Oc3cc2cc(c3O[C@@H]2O[C@H](CO)[C@@H](O)[C@H](O)[C@H]2O[C@H]2C[C@](C)(N)[C@H](O)[C@H](C)O2)Oc2ccc(cc2Cl)[C@H]1O [Vancomycin]
fitness, S. pneumoniae D39V [1]
Settings	first compound 1.073 µg/mL	first compound 1.25 µg/mL	first compound 2.145 µg/mL	first compound 2.5 µg/mL	first compound 4.29 µg/mL	first compound 5 µg/mL
partner 0.03125 µg/mL	–	0.993	–	≥ 1	–	0.966
partner 0.0625 µg/mL	–	0.909	–	0.923	–	0.913
partner 0.125 µg/mL	0.884	0.759	0.851	0.81	0.84	0.731
partner 0.5 µg/mL	–	–	–	–	0.415	–

Settings	Bliss interaction score
B. subtilis 168	0.0343
S. aureus DSM 20231	0.0309
S. aureus Newman	0.0654
S. pneumoniae D39V [2]	0.154

Clc1ccc(COC(Cn2ccnc2)c2ccc(Cl)cc2Cl)c(Cl)c1 (stereo not drawn) [Miconazole] + CO[C@H]1/C=C/O[C@@]2(C)Oc3c(C)c(O)c4c(O)c(c(/C=N/N5CCN(C)CC5)c(O)c4c3C2=O)NC(=O)/C(C)=C\C=C\[C@H](C)[C@H](O)[C@@H](C)[C@@H](O)[C@@H](C)[C@H](OC(C)=O)[C@@H]1C [Rifampicin]
fitness, S. pneumoniae D39V [1]
Settings	first compound 1.073 µg/mL	first compound 1.25 µg/mL	first compound 2.145 µg/mL	first compound 2.5 µg/mL	first compound 4.29 µg/mL	first compound 5 µg/mL
partner 0.05 µg/mL	0.974	0.774	1	0.806	0.998	0.779
partner 0.1 µg/mL	–	0.411	–	0.41	0.776	–
partner 0.2 µg/mL	0.363	–	0.37	–	0.477	–

fitness, S. pneumoniae D39V [1], one replicate
Settings	first compound 1.25 µg/mL	first compound 2.5 µg/mL	first compound 5 µg/mL
partner 0.025 µg/mL	0.856	0.861	0.853
partner 0.2 µg/mL	0	0	0

Settings	Bliss interaction score
B. subtilis 168	0.0476
S. aureus DSM 20231	0.035
S. aureus Newman	0.0801
S. pneumoniae D39V [2]	0.169

Clc1ccc(COC(Cn2ccnc2)c2ccc(Cl)cc2Cl)c(Cl)c1 (stereo not drawn) [Miconazole] + COc1c(N2C[C@@H]3CCCN[C@@H]3C2)c(F)cc2c(=O)c(C(=O)O)cn(C3CC3)c12 [Moxifloxacin]
fitness, S. pneumoniae D39V [1]
Settings	first compound 1.073 µg/mL	first compound 1.25 µg/mL	first compound 2.145 µg/mL	first compound 2.5 µg/mL	first compound 4.29 µg/mL	first compound 5 µg/mL
partner 0.0037 µg/mL	0.959	–	0.951	–	0.802	–
partner 0.005 µg/mL	–	0.935	–	0.926	–	0.953
partner 0.0075 µg/mL	0.986	–	0.942	–	0.796	–
partner 0.01 µg/mL	–	0.925	–	0.936	–	0.961
partner 0.015 µg/mL	0.957	–	0.942	–	0.682	–
partner 0.02 µg/mL	–	0.825	–	0.828	–	0.911

Settings	Bliss interaction score
B. subtilis 168	-0.0223
S. aureus DSM 20231	-0.059
S. aureus Newman	0.0536
S. pneumoniae D39V [2]	0.0598

Clc1ccc(COC(Cn2ccnc2)c2ccc(Cl)cc2Cl)c(Cl)c1 (stereo not drawn) [Miconazole] + COc1ccc(C[C@H](N)C(=O)N[C@H]2[C@@H](O)[C@H](n3cnc4c(N(C)C)ncnc43)O[C@@H]2CO)cc1 [Puromycin]
fitness, S. pneumoniae D39V [1]
Settings	first compound 1.073 µg/mL	first compound 2.145 µg/mL	first compound 4.29 µg/mL
partner 1 µg/mL	0.966	≥ 1	0.968
partner 2 µg/mL	0.996	≥ 1	0.976
partner 4 µg/mL	0.879	0.903	0.846

fitness, S. pneumoniae D39V [1], one replicate
Settings	first compound 1.25 µg/mL	first compound 2.5 µg/mL	first compound 5 µg/mL
partner 1 µg/mL	0.884	0.91	≥ 1
partner 2 µg/mL	0.914	0.903	0.874
partner 4 µg/mL	0.742	0.717	0.809

Settings	Bliss interaction score
B. subtilis 168	0.0522
S. aureus DSM 20231	0.0532
S. aureus Newman	0.0603
S. pneumoniae D39V [2]	0.124

Clc1ccc(COC(Cn2ccnc2)c2ccc(Cl)cc2Cl)c(Cl)c1 (stereo not drawn) [Miconazole] + C[n+]1ccc(-c2cc[n+](C)cc2)cc1 [Paraquat]
fitness, S. pneumoniae D39V [1]
Settings	first compound 1.073 µg/mL	first compound 2.145 µg/mL	first compound 4.29 µg/mL
partner 1.5 µg/mL	≥ 1	0.999	0.925
partner 3 µg/mL	≥ 1	0.987	0.908
partner 6 µg/mL	0.979	0.983	0.824

fitness, S. pneumoniae D39V [1], one replicate
Settings	first compound 1.25 µg/mL	first compound 2.5 µg/mL	first compound 5 µg/mL
partner 1.5 µg/mL	≥ 1	0.983	0.944
partner 3 µg/mL	≥ 1	≥ 1	0.997
partner 6 µg/mL	0.957	0.932	0.885

Settings	Bliss interaction score
B. subtilis 168	0.0318
S. aureus DSM 20231	0.0436
S. aureus Newman	-0.0378
S. pneumoniae D39V [2]	-0.0527

Clc1ccc(COC(Cn2ccnc2)c2ccc(Cl)cc2Cl)c(Cl)c1 (stereo not drawn) [Miconazole] + Cc1cc(NS(=O)(=O)c2ccc(N)cc2)no1 [Sulfamethoxazol]
fitness, S. pneumoniae D39V [1]
Settings	first compound 1.073 µg/mL	first compound 2.145 µg/mL	first compound 4.29 µg/mL
partner 1 µg/mL	0.989	≥ 1	0.946
partner 2 µg/mL	0.981	0.998	0.923
partner 4 µg/mL	0.999	0.988	0.924

fitness, S. pneumoniae D39V [1], one replicate
Settings	first compound 1.25 µg/mL	first compound 2.5 µg/mL	first compound 5 µg/mL
partner 1 µg/mL	0.94	0.966	0.932
partner 2 µg/mL	0.894	0.955	0.908
partner 4 µg/mL	0.892	0.876	0.864

Settings	Bliss interaction score
B. subtilis 168	0.0845
S. aureus DSM 20231	0.0319
S. aureus Newman	0.0463
S. pneumoniae D39V [2]	0.0572

Clc1ccc(COC(Cn2ccnc2)c2ccc(Cl)cc2Cl)c(Cl)c1 (stereo not drawn) [Miconazole] + Cc1onc(-c2ccccc2)c1C(=O)N[C@@H]1C(=O)N2[C@@H]1SC(C)(C)[C@@H]2C(=O)O [Oxacillin]
fitness, S. pneumoniae D39V [1]
Settings	first compound 1.073 µg/mL	first compound 1.25 µg/mL	first compound 2.145 µg/mL	first compound 2.5 µg/mL	first compound 4.29 µg/mL	first compound 5 µg/mL
partner 0.01 µg/mL	≥ 1	0.939	≥ 1	0.938	0.928	0.946
partner 0.02 µg/mL	0.977	0.864	0.906	0.874	0.716	0.892
partner 0.04 µg/mL	–	0.363	–	0.359	0.434	0.386

Settings	Bliss interaction score
B. subtilis 168	0.0802
S. aureus DSM 20231	0.0539
S. aureus Newman	0.0481
S. pneumoniae D39V [2]	0.0753

Clc1ccc(COC(Cn2ccnc2)c2ccc(Cl)cc2Cl)c(Cl)c1 (stereo not drawn) [Miconazole] + Cn1nnc(-c2ccc(-c3ccc(N4C[C@H](CO)OC4=O)cc3F)cn2)n1 [Tedizolid]
fitness, S. pneumoniae D39V [1]
Settings	first compound 1.073 µg/mL	first compound 1.25 µg/mL	first compound 2.145 µg/mL	first compound 2.5 µg/mL	first compound 4.29 µg/mL	first compound 5 µg/mL
partner 0.03125 µg/mL	–	0.96	–	0.97	–	0.925
partner 0.0625 µg/mL	–	0.968	–	0.929	–	0.934
partner 0.125 µg/mL	0.872	0.797	0.937	0.797	0.943	0.746
partner 0.25 µg/mL	0.729	–	0.778	–	0.829	–
partner 0.5 µg/mL	0.413	–	0.402	–	0.489	–

Settings	Bliss interaction score
B. subtilis 168	0.0402
S. aureus DSM 20231	0.0592
S. aureus Newman	0.0625
S. pneumoniae D39V [2]	-0.0671

Clc1ccc(COC(Cn2ccnc2)c2ccc(Cl)cc2Cl)c(Cl)c1 (stereo not drawn) [Miconazole] + O=C1CN(/N=C/c2ccc([N+](=O)[O-])o2)C(=O)N1 [Nitrofurantoin]
fitness, S. pneumoniae D39V [1]
Settings	first compound 1.073 µg/mL	first compound 1.25 µg/mL	first compound 2.145 µg/mL	first compound 2.5 µg/mL	first compound 4.29 µg/mL	first compound 5 µg/mL
partner 1.285 µg/mL	–	0.987	–	0.959	–	0.945
partner 2 µg/mL	0.972	–	≥ 1	–	0.93	–
partner 2.57 µg/mL	–	0.968	–	0.954	–	0.936
partner 4 µg/mL	0.988	–	≥ 1	–	0.949	–
partner 8 µg/mL	0.92	–	0.951	–	0.919	–

S. pneumoniae D39V [1], partner 5.14 µg/mL, one replicate
Settings	fitness
first compound 1.25 µg/mL	0.897
first compound 2.5 µg/mL	0.848
first compound 5 µg/mL	0.847

Settings	Bliss interaction score
B. subtilis 168	-0.125
S. aureus DSM 20231	0.0458
S. aureus Newman	-0.0579
S. pneumoniae D39V [2]	0.091

Cc1onc(-c2ccccc2)c1C(=O)N[C@@H]1C(=O)N2[C@@H]1SC(C)(C)[C@@H]2C(=O)O [Oxacillin] + CO[C@H]1/C=C/O[C@@]2(C)Oc3c(C)c(O)c4c(O)c(c(/C=N/N5CCN(C)CC5)c(O)c4c3C2=O)NC(=O)/C(C)=C\C=C\[C@H](C)[C@H](O)[C@@H](C)[C@@H](O)[C@@H](C)[C@H](OC(C)=O)[C@@H]1C [Rifampicin]
S. pneumoniae D39V [1], partner 0.025 µg/mL, one replicate
Settings	fitness
first compound 0.01 µg/mL	0.891
first compound 0.02 µg/mL	0.801
first compound 0.04 µg/mL	0.407

S. pneumoniae D39V [1], partner 0.2 µg/mL
Settings	fitness
first compound 0.01 µg/mL	0.144
first compound 0.02 µg/mL	0.0871
first compound 0.04 µg/mL	0.143

Settings	Bliss interaction score
B. subtilis 168	0.0578
S. aureus DSM 20231	0.0464
S. aureus Newman	0.0684
S. pneumoniae D39V [2]	-0.0851

C[n+]1ccc(-c2cc[n+](C)cc2)cc1 [Paraquat] + CO[C@H]1/C=C/O[C@@]2(C)Oc3c(C)c(O)c4c(O)c(c(/C=N/N5CCN(C)CC5)c(O)c4c3C2=O)NC(=O)/C(C)=C\C=C\[C@H](C)[C@H](O)[C@@H](C)[C@@H](O)[C@@H](C)[C@H](OC(C)=O)[C@@H]1C [Rifampicin]
S. pneumoniae D39V [1], partner 0.025 µg/mL, one replicate
Settings	fitness
first compound 1.5 µg/mL	0.869
first compound 3 µg/mL	0.833
first compound 6 µg/mL	0.842

fitness, S. pneumoniae D39V [1]
Settings	first compound 1.5 µg/mL	first compound 3 µg/mL	first compound 6 µg/mL
partner 0.05 µg/mL	–	0.882	0.897
partner 0.2 µg/mL	0.0862	0.102	0.0798

Settings	Bliss interaction score
B. subtilis 168	0.0618
S. aureus DSM 20231	0.0593
S. aureus Newman	0.0217
S. pneumoniae D39V [2]	-0.0393
